In US7404948B2, “Peptidic conjugates for alopecia prevention and treatment” (Institut Europeen de Biologie Cellulaire, priority 2003, dated 2008):
Non-standard residues stand in square brackets, D forms with d. hPhe = N[C@@H](CCc1ccccc1)C(=O)O

Tested on: anagen-phase mouse vibrissae hair follicles
Assay: Growth of mouse vibrissae in vitro (hair follicle culture, Philpott technique)
Assay type: cell-based
Parameters: unit not given here
Details: peptide 10^−7 M, A is acetic acid
Excerpt: The Effects of Various Peptides on the Growth of Mouse Vibrissae In Vitro
The growth of the hair shaft of these hair follicles was followed for several days (Day 0 to Day 4). The results are reported in the table below for peptides 1- and 2-described above, for which A is acetic acid.

Substance	growth of the hair shaft (Day 0)	growth of the hair shaft (Day 1)	growth of the hair shaft (Day 2)	growth of the hair shaft (Day 3)	growth of the hair shaft (Day 4)
A-Arg-Lys-Asp-Val-DHomoPhe-NH2 [Peptide 1-]	0.00	0.90	1.38	1.86	1.87
Ac-Arg-Lys-Asp-Val-HomoPhe-NH2 (Ac-RKDV[hPhe]-NH2; also: acetate salt) [Peptide 2-]	0.00	0.83	1.46	1.62	1.62
